From article PMC8786932, “Bicyclic azetidines target acute and chronic stages of Toxoplasma gondii by inhibiting parasite phenylalanyl t-RNA synthetase” (Nature Communications, 2022)
Values joined by “and” are separate entries in the source; they are usually repeats but may differ in a detail not shown here. Equal values may be shown once. Read-outs that look alike come from different tables or passages of the source.

Tests used:
TgPheRS[L497I] = target: T1, TgPheRS[L497I] (Toxoplasma gondii, UniProt A0A125YPN6, L497I); assay: Enzyme assay, TgPheRS L497I; assay type: biochemical; conditions: for enzyme assay readout (raw): L497I
T1 sequence (A0A125YPN6 1-525 L497I): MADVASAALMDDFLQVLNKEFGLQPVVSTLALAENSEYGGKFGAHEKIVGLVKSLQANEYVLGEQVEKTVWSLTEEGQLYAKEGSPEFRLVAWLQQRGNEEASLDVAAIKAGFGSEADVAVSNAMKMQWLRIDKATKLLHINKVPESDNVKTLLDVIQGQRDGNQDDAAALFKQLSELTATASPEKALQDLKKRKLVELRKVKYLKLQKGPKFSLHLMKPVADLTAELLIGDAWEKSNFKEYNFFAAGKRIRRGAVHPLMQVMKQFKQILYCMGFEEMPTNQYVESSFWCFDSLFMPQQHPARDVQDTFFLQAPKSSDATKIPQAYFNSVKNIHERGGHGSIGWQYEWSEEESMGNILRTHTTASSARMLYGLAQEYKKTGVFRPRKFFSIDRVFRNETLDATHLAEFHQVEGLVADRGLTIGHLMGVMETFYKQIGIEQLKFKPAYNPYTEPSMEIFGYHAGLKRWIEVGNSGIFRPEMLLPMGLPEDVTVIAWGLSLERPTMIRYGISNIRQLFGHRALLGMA
T1 sequence (S8EZ50 1-675 partner): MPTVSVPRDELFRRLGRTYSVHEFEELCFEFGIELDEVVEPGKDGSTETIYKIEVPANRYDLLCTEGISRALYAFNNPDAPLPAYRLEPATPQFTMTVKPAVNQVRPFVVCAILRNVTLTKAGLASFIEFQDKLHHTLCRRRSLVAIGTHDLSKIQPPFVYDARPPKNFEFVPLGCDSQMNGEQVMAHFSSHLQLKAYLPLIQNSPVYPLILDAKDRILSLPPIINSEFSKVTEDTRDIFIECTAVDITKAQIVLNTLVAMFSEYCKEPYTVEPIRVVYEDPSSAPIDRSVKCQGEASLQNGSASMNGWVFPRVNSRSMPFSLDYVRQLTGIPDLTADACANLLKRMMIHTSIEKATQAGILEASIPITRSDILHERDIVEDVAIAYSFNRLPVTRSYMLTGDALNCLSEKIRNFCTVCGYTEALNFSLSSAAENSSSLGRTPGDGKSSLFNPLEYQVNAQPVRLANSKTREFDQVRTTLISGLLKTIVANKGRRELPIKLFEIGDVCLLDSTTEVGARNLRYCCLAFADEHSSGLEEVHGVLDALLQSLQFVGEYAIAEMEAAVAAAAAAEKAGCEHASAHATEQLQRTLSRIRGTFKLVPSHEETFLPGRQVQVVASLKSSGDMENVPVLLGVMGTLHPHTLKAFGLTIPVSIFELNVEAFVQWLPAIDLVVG

[1] = 30 mg/kg oral vs 10 mg/kg
TgPheRS V262A M484I = target: T2, TgPheRS V262A M484I (Toxoplasma gondii, UniProt A0A125YPN6, M484I/V262A); assay: Enzyme assay, TgPheRS V262A M484I double mutant; assay type: biochemical; conditions: for enzyme assay readout (raw): V262A / M484I
T2 sequence (A0A125YPN6 1-525 V262A/M484I): T1 sequence (A0A125YPN6 1-525 L497I)
T2 sequence (S8EZ50 1-675 partner): T1 sequence (S8EZ50 1-675 partner)

[2] = tested on: T. gondii RHΔΔ TgPheRS[M484I]; assay: Tachyzoite lytic assay, M484I mutant; assay type: cell-based; conditions: Toxoplasma gondii
Description: In vitro cultures of HFF cells containing mature vacuoles were scraped, passaged through 23 g blunt end needles, and filtered using 3 micron filters. Purified parasites were resuspended in 350 μL of cytomix plus[49] and combined in a BTX 4 mm gap cuvette with 30 μL of PCR amplified templates corresponding to mutations of interest and 10 μg of pSAG1:Cas9-GFP U6:sgTgPheRS^[mut] (in 20 μL, 400 μL total volume, see Supplementary Data 1 for sgRNA sequences) prior to electroporation using a BTX ETM 830 electroporator. Amplified templates for TgPheRS mutations were generated from gBlocks (Integrated DNA Technologies, Coralville, IA, USA) that contain a BclI restriction site that replaces the PAM sequence to protect the repair template from being cut by Cas9. […]
Parasite growth on HFF monolayers was monitored using a 96-well plate-based lytic assay modified from a previously described protocol. […] Plates were rinsed with water, air dried, and absorption quantified on the Cytation 3 multi-mode imager at 570 nm wavelength. % parasite growth was calculated as 100−[(OD value for infected cultures at each concentration of compound/average OD value for no compound and no parasite infection) × 100]. EC50 values were calculated based on the mean of three biological replicates with each replicate containing two technical replicates.

With `COc1ccc(NC(=O)N2CCCCN3[C@H](CN(C)C)[C@H](c4ccc(C#Cc5ccccc5)cc4)[C@@H]3C2)cc1` [BRD7929] as the compound, how does the “enzyme assay readout (raw)” value (TgPheRS[L497I]; 0.000005 μM) read?
The value was 0.3299 and 0.3217 and 0.3007.

And the “enzyme assay readout (raw)” value (TgPheRS[L497I]; 0.000050 μM)?
The value was 0.3157 and 0.3171 and 0.3115.

And the “enzyme assay readout (raw)” value (TgPheRS[L497I]; 0.000500 μM)?
The value was 0.3154 and 0.3074 and 0.3183.

What about the “enzyme assay readout (raw)” value (TgPheRS[L497I]; 0.005000 μM) of the same compound?
The value was 0.2831 and 0.3060 and 0.3128.

What about the “enzyme assay readout (raw)” value (TgPheRS[L497I]; 0.050000 μM) of the same compound?
Its value is 0.3012 and 0.2839 and 0.2985.

What about the “enzyme assay readout (raw)” value (TgPheRS[L497I]; 0.500000 μM) of the same compound?
The value was 0.2641 and 0.2615 and 0.2741.

What about the “enzyme assay readout (raw)” value (TgPheRS[L497I]; 5.000000 μM) of the same compound?
The value was 0.2401 and 0.2141 and 0.2271.

And the “enzyme assay readout (raw)” value (TgPheRS[L497I]; 50.000000 μM)?
Its value is 0.1719 and 0.1728 and 0.1711.

What about the IC50 (TgPheRS[L497I]; Table S4, L497I, read-out: IC50 (enzyme inhibition)) of the same compound?
Its IC50 is 1320 nM.

What about the “plasma levels at increased dose” value [1] of the same compound?
Its value is “did not lead to a proportional increase in plasma levels”.

What about the IC50 (TgPheRS V262A M484I; Table S4, V262A-M484I, read-out: IC50 (enzyme inhibition)) of the same compound?
The IC50 was 197 nM.

And the “enzyme assay readout (raw)” value (TgPheRS V262A M484I; 0.000005 μM)?
Its value is 0.3462 and 0.3680 and 0.4006.

And the “enzyme assay readout (raw)” value (TgPheRS V262A M484I; 0.000050 μM)?
The value was 0.3131 and 0.3315 and 0.3158.

What about the “enzyme assay readout (raw)” value (TgPheRS V262A M484I; 0.000500 μM) of the same compound?
The value was 0.3040 and 0.3143 and 0.2881.

What about the “enzyme assay readout (raw)” value (TgPheRS V262A M484I; 0.005000 μM) of the same compound?
Its value is 0.2789 and 0.2890 and 0.2929.

What about the “enzyme assay readout (raw)” value (TgPheRS V262A M484I; 0.050000 μM) of the same compound?
The value was 0.2807 and 0.2760 and 0.2780.

And the “enzyme assay readout (raw)” value (TgPheRS V262A M484I; 0.500000 μM)?
Its value is 0.2333 and 0.2480 and 0.2628.

And the “enzyme assay readout (raw)” value (TgPheRS V262A M484I; 5.000000 μM)?
The value was 0.2051 and 0.1829 and 0.2098.

And the “enzyme assay readout (raw)” value (TgPheRS V262A M484I; 50.000000 μM)?
The value was 0.1004 and 0.1152 and 0.1172.

And the EC50 ([2]; 72 h, read-out: EC50, M484I)?
Its EC50 is 93 nM.

What about the EC50 ([2]; read-out: EC50 (growth restriction)) of the same compound?
The EC50 was 65 nM.
